Measurements published in article PMC3242765, “Inhibitors of Alphavirus Entry and Replication Identified with a Stable Chikungunya Replicon Cell Line and Virus-Based Assays” (PLoS ONE, 2011).
“And” between values parts separate entries of the source, which are not always exact repeats. Equal values may be shown once. Where a name gives a salt, the structure may show the parent alone.

Columns and labels:
SFV-Rluc = details: for SFV replication % left: primary screening of chemical libraries, compounds tested at 50 µM; for % left (remaining SFV replication): Supplementary Table 2, moderately active compounds (25 - 60% remaining), primary screen at 50 µM
CHIKV replicon = assay: microbe, parasite or virus in culture; type: cell-based, Chikungunya virus (CHIKV)

Structure (SMILES)	SFV replication % left (surviving fraction, remaining percentage of SFV replication) (SFV-Rluc)	CHIKV replicon % left (CHIKV replicon)	SFV replication % left (SFV-Rluc)	% left (remaining SFV replication) (SFV-Rluc)
CCc1nnc(NS(=O)(=O)c2ccc(N)cc2)s1 [Sulfaethidole]	106.4%	100.4%	–	–
O=C(O)c1cc(O)c(O)c(O)c1 [Gallic acid]	148.8%	88.9%	–	–
CC(=O)c1ccccc1O [2-Hydroxyacetophenone]	129.7%	99.4%	–	–
O=S(=O)(O)NC1CCCCC1 [Cyclamic acid]	74.9%	107.5%	–	–
CC(=O)N(c1onc(C)c1C)S(=O)(=O)c1ccc(N)cc1 [Acetylsulfisoxazole]	40.4%	82.1%	–	–
Nc1ccc(S(=O)(=O)Nc2ncccn2)cc1 [Sulfadiazine]	107.7%	81.2%	–	–
CC(=O)OCC(=O)[C@@]1(O)CC[C@H]2[C@@H]3CCC4=CC(=O)CC[C@]4(C)[C@H]3[C@@H](O)C[C@@]21C [Hydrocortisone acetate]	116.8%	72.1%	–	–
O=c1cc(-c2ccc(O)c(O)c2)oc2cc(O[C@@H]3O[C@H](CO)[C@@H](O)[C@H](O)[C@H]3O)cc(O)c12 [Luteolin-7-glucoside]	17.8%	54.4%	–	–
CCN(CC)C(C)C(=O)c1ccccc1 (stereo not shown) [Diethylpropion hydrochloride]	47.1%	29.6%	–	–
O=c1ccc2ccc(O)cc2o1 [Umbelliferone]	93.1% and 78.4%	106.5% and 100.7%	–	–
CCCCC1C(=O)N(c2ccccc2)N(c2ccccc2)C1=O [Phenylbutazone]	96.7%	100.5%	–	–
Oc1cc(O)c2cc(O)c(-c3ccc(O)c(O)c3)[o+]c2c1 [Cyanidin chloride]	24.5%	54.8%	–	–
COc1cc2ccc(=O)oc2cc1O [Scopoletin]	81.9%	95.4%	–	–
O.O.O.O=c1ccc2cc(O[C@@H]3O[C@H](CO)[C@@H](O)[C@H](O)[C@H]3O)c(O)cc2o1.O=c1ccc2cc(O[C@@H]3O[C@H](CO)[C@@H](O)[C@H](O)[C@H]3O)c(O)cc2o1 [Esculin sesquihydrate]	95.0%	102.6%	–	–
CS(=O)(=O)OCCCCOS(C)(=O)=O [Busulfan]	51.8%	100.5%	–	–
O=C(O)c1c(O)cccc1O [2,6-Dihydroxybenzoic acid]	118.7%	62.3%	–	–
CC(C)(CO)[C@@H](O)C(=O)NCCC(=O)[O-].CC(C)(CO)[C@@H](O)C(=O)NCCC(=O)[O-].O.[Ca+2]	93.1%	106.1%	–	–
C[C@@H]1O[C@@H](O[C@H]2C[C@@H](O)[C@]3(CO)[C@H]4[C@H](O)C[C@]5(C)[C@@H](C6=CC(=O)OC6)CC[C@]5(O)[C@@H]4CC[C@]3(O)C2)[C@H](O)[C@H](O)[C@H]1O [Ouabain]	90.9%	89.2%	–	–
CN(C)c1cccc2c(S(=O)(=O)Cl)cccc12	4.6%	10.4%	–	–
O[C@H]1[C@H](O)[C@@H](O)[C@H](O)[C@@H](O)[C@H]1O [Inositol]	106.0%	89.5%	–	–
OCCOCCN1CCN(C(c2ccccc2)c2ccc(Cl)cc2)CC1 (stereo not shown) [Hydroxyzine hydrochloride]	98.3%	100.5%	–	–

Structure (SMILES)	SFV replication % left (surviving fraction, remaining percentage of SFV replication) (SFV-Rluc)	CHIKV replicon % left (CHIKV replicon)	SFV replication % left (SFV-Rluc)	% left (remaining SFV replication) (SFV-Rluc)
COc1ccccc1OCC(O)CO (stereo not shown) [Guaifenesin]	124.5%	82.7%	–	–
O=C(O)c1cc2cc(Br)cc(Br)c2oc1=O [6,8-Dibromocoumarin carboxylic acid]	67.4%	100.1%	–	–
O=c1ccc2cc(O)c(O)cc2o1 [Esculetin]	103.6%	89.2%	–	–
CC(C)NCC(O)COc1cccc2ccccc12 (stereo not shown) [Propranolol hydrochloride]	74.0%	105.4%	–	–
C[C@H](C(=O)O)c1cccc(C(=O)c2ccccc2)c1.C[C@H](C(=O)O)c1cccc(C(=O)c2ccccc2)c1	–	99.6%	–	–
CN1[C@@H]2CC[C@H]1C[C@@H](OC(=O)C(O)c1ccccc1)C2 (stereo partly shown) [Homatropine hydrobromide]	–	100.4%	–	–
CN(C)CCCN1c2ccccc2Sc2ccc(Cl)cc21 [Chlorpromazine hydrochloride]	–	105.4%	–	–
C[C@](N)(Cc1ccc(O)c(O)c1)C(=O)O [PC-118]	–	–	99.1%	–
C#C[C@]1(O)CC[C@H]2[C@@H]3CCC4=CC(=O)CC[C@@H]4[C@H]3CC[C@@]21C [PC-134]	–	–	107.8%	–
NS(=O)(=O)c1cc2c(cc1Cl)NCNS2(=O)=O [PC-091]	–	–	121.2%	–
Oc1cc(O)c2cc(O)c(-c3ccc(O)c(O)c3)[o+]c2c1.[Cl-] [NC-019]	–	–	24.5%	–
CC(C)(C)NC[C@H](O)COc1nsnc1N1CCOCC1.O=C(O)/C=C\C(=O)O [PC-225]	129.1%	–	–	–
N/C(CC(O)COc1cccc2ccccc12)=N/O (stereo not shown) [PC-124]	–	–	20.8%	–
Oc1cc(O)c2c(c1)O[C@H](c1cc(O)c(O)c(O)c1)[C@H](O)C2 [NC-036]	–	–	101.9%	–
CC(N)C(O)c1ccc(O)c(O)c1.Cl (stereo not shown) [PC-133]	–	–	118.0%	–
Cl.c1ccc(CN(CC2=NCCN2)c2ccccc2)cc1 [PC-014]	–	–	38.7%	–
Cc1cc2nc3c(=O)[nH]c(=O)nc-3n(C[C@H](O)[C@H](O)[C@H](O)CO)c2cc1C [PC-182]	–	–	–	43.1%
CCN(CCO)CCCC(C)Nc1ccnc2cc(Cl)ccc12.O=S(=O)(O)O (stereo not shown) [PC-093]	–	–	128.9%	–
Nc1nc2ncc(CNc3ccc(C(=O)N[C@@H](CCC(=O)O)C(=O)O)cc3)nc2c(=O)[nH]1 [PC-085]	–	–	100.0%	–
CNC(C)C(O)c1ccc(O)cc1 (stereo not shown) [PC-094]	–	–	94.4%	–
OCc1ccccc1O[C@@H]1O[C@H](CO)[C@@H](O)[C@H](O)[C@H]1O [NC-091]	–	–	104.4%	–

Structure (SMILES)	SFV replication % left (surviving fraction, remaining percentage of SFV replication) (SFV-Rluc)	CHIKV replicon % left (CHIKV replicon)	SFV replication % left (SFV-Rluc)	% left (remaining SFV replication) (SFV-Rluc)
COc1cc(-c2oc3cc(O)cc(O)c3c(=O)c2O)ccc1O [NC-056]	–	–	28.9%	28.9%
CC[C@@]1(O)C(=O)OCc2c1cc1n(c2=O)Cc2cc3ccccc3nc2-1 [NC-099]	–	–	87.7%	–
CCOC(=O)c1ccc(N)cc1 [PC-023]	–	–	43.4%	–
COc1ccc2ccc(=O)oc2c1 [NC-124]	–	–	53.2%	–
C[C@@H]1O[C@@H](Oc2c(-c3ccc(O)c(O)c3)oc3cc(O)cc(O)c3c2=O)[C@H](O)[C@H](O)[C@H]1O.O.O [NC-083]	–	–	11.4%	–
Cc1c(C)c2c(c(C)c1O)CCC(C)(C(=O)O)O2 (stereo not shown) [NC-103]	–	–	76.9%	–
COc1ccc2c(C)cc(=O)oc2c1 [NC-120]	–	–	72.2%	–
O=C1CC(=O)NC(=O)N1 [PC-021]	–	–	48.8%	–
O=C1Nc2ccc(Cl)cc2C(c2ccccc2Cl)=NC1O (stereo not shown) [PC-106]	–	–	98.2%	–
CC(C)NCC(O)c1ccc(O)c(O)c1.CC(C)NCC(O)c1ccc(O)c(O)c1.O.O.O=S(=O)(O)O (stereo not shown) [PC-102]	–	–	110.9%	–
O=C1CN(/N=C/c2ccc([N+](=O)[O-])o2)C(=O)N1 [PC-131]	–	–	58.9%	–
NC(=O)N1c2ccccc2C=Cc2ccccc21 [PC-037]	–	–	57.2%	57.3%
CCC1(c2ccccc2)C(=O)N=C([O-])NC1=O.[Na+] (stereo not shown) [PC-189]	88.1%	–	–	–
CC(C)NCC(O)COc1ccc(CC(N)=O)cc1 (stereo not shown) [Atenolol]	44.2%	–	–	–
COc1cc2ccc(=O)oc2cc1O [NC-114]	–	–	81.9%	–
Nc1ccc(C(=O)O)cc1 [PC-010]	–	–	56.5%	–
Nc1ccc(Cl)cc1C(=O)c1ccccc1F [PC-083]	–	–	167.4%	–
O=c1oc2c(O)c(O)cc3c(=O)oc4c(O)c(O)cc1c4c23 [NC-033]	–	–	64.9%	–
Cc1cc(C(C)(C)C)c(O)c(C(C)(C)C)c1 [NC-107]	–	–	72.6%	–
